Tested on: bovine cardiac myofibrils
Assay: Myofibril assay: PK/LDH-coupled steady-state ATPase activity of skinned bovine cardiac myofibrils
Assay type: biochemical
Settings: Ca2+ activating to 75% of maximal rate
Outline: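 Steady-state ATPase of detergent-skinned bovine left-ventricular myofibrils (1 mg/mL), PK/LDH-coupled NADH read at 340 nm, in PIPES/MgCl2 buffer pH 6.8 with 50 μM ATP, 0.6 mM EGTA and CaCl2 set for 50% or 75% activation. Inhibition of activity measured.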

Structure (SMILES) | CDMF75 IC15
Cc1ccc(CN2C(=O)CN(c3ncc(Cl)cc3F)C(=O)C23COC3)cc1 [Compound 757, 8-(5-chloro-3-fluoropyrldin-2-yl)-5-(4-methylbenzyl)-2-oxa-5,8-diazaspiro[3.5]-nonane-6,9-dione] | 7.2 µM
COc1cnc(N2CC(=O)N(Cc3ccc(C)cc3)C(C3COC3)C2=O)c(F)c1 (centres unmarked) [Compound 758, 1-(3-fluoro-5-methoxy-pyridin-2-yl)-4-(4-methyl-benzyl)-3-(oxetan-3-yl)-piperazine-2,5-dione] | 19.4 µM
COc1cnc(N2CC(=O)N(Cc3ccc(C)c(F)c3)C(C3COC3)C2=O)c(F)c1 (centres unmarked) [Compound 761, 4-(3-fluoro-4-methyl-benzyl)-1-(3-fluoro-5-methoxypyridin-2-yl)-3-(oxetan-3-yl)piperazine-2,5-dione] | 16.3 µM
O=C1CN(c2ncc(Cl)cc2F)C(=O)C2(CC(O)C2)N1Cc1ccc(F)cc1 (centres unmarked) [Compound 764, 8-(5-chloro-3-fluoropyridin-2-yl)-5-(4-fluorobenzyl)-2-hydroxy-5,8-diazaspiro-[3.5]nonane-6,9-dione] | 1.6 µM
O=C1CN(c2ncc(Cl)cc2F)C(=O)C2(COC2)N1Cc1ccc(C(F)F)cc1 [Compound 768, 8-(5-chloro-3-fluoropyridin-2-yl)-5-(4-(difluoromethyl)-benzyl)-2-oxa-5,8-diazaspiro[3.5]nonane-6,9-dione] | 4.3 µM
COc1cnc(N2CC(=O)N(Cc3ccc(Cl)cc3)C(C3COC3)C2=O)c(F)c1 (centres unmarked) [Compound 769, 4-(4-chlorobenzyl)-1-(3-fluoro-5-methoxypyridin-2-yl)-3-(oxetan-3-yl)-piperazine-2,5-dione] | 7.9 µM
COc1cnc(N2CC(=O)N(Cc3ccc(Cl)c(F)c3)C(C3COC3)C2=O)c(F)c1 (centres unmarked) [Compound 772, 4-(4-chloro-3-fluoro-benzyl)-1-(3-fluoro-5-methoxypyridin-2-yl)-3-(oxetan-3-yl)piperazine-2,5-dione] | 7.7 µM
COc1cnc(N2CC(=O)N(Cc3ccc(F)c(Cl)c3)C(C3COC3)C2=O)c(F)c1 (centres unmarked) [Compound 775, 4-(3-chloro-4-fluoro-benzyl)-1-(3-fluoro-5-methoxypyridin-2-yl)-3-(oxetan-3-yl)piperazine-2,5-dione] | 8.0 µM
COC(=O)C12CC(C3C(=O)N(c4ncc(Cl)cc4F)CC(=O)N3Cc3ccc(C(F)(F)F)cc3)(C1)C2 (centres unmarked) [Compound 778, methyl 3-(4-(5-chloro-3-fluoropyridin-2-yl)-3,6-dioxo-1-(4-(trifluoro-methyl)benzyl)piperazin-2-yl)bicydo[1.1.1]pentane-1-carboxylate] | 2.4 µM
COC(=O)C12CC(C3C(=O)N(c4ncc(Cl)cc4F)CC(=O)N3Cc3ccc(C(F)F)cc3)(C1)C2 (centres unmarked) [Compound 779, methyl 3-(4-(5-chloro-3-fluoropyridin-2-yl)-1-(4-(difluoromethyl)benzyl)-3,6-dioxopiperazin-2-yl)bicyclo[1.1.1]pentane-1-carboxylate] | 2.9 µM
COC(=O)C12CC(C3C(=O)N(c4ncc(Cl)cc4F)CC(=O)N3Cc3ccc(F)cc3)(C1)C2 (centres unmarked) [Compound 780, methyl 3-(4-(5-chloro-3-fluoropyridin-2-yl)-1-(4-fluorobenzyl)-3,6-dioxopiperazin-2-yl)bicyclo[1.1.1]pentane-1-carboxylate] | 3.6 µM
COC(=O)C12CC(C3C(=O)N(c4ncc(Cl)cc4F)CC(=O)N3Cc3ccc(C)cc3)(C1)C2 (centres unmarked) [Compound 781, methyl 3-(4-(5-chloro-3-fluoropyridin-2-yl)-1-(4-methylbenzyl)-3,6-dioxopiperazin-2-yl)bicyclo[1.1.1]pentane-1-carboxylate] | 4.0 µM
CCOC(=O)C12CC(C3C(=O)N(c4ncc(Cl)cc4F)CC(=O)N3Cc3ccc(C(F)(F)F)cc3)(C1)C2 (centres unmarked) [Compound 782, ethyl 3-(4-(5-chloro-3-fluoropyridin-2-yl)-3,6-dioxo-1-(4-(trifluoro-methyl)benzyl)piperazin-2-yl)bicyclo[1.1.1]pentane-1-carboxylate] | 3.6 µM
NC(=O)C12CC(C3C(=O)N(c4ncc(Cl)cc4F)CC(=O)N3Cc3ccc(C(F)(F)F)cc3)(C1)C2 (centres unmarked) [Compound 783, 3-(4-(5-chloro-3-fluoro-pyridin-2-yl)-3,6-dioxo-1-(4-(trifluoromethyl)-benzyl)piperazin-2-yl)bicyclo[1.1.1]pentane-1-carboxamide] | 3.08 µM
O=C1C(C23CC(CO)(C2)C3)N(Cc2ccc(C(F)(F)F)cc2)C(=O)CN1c1ncc(Cl)cc1F (centres unmarked) [Compound 784, 1-(5-chloro-3-fluoropyridin-2-yl)-3-(3-(hydroxymethyl)bicyclo[1.1.1]pentan-1-yl)-4-(4-(trifluoromethyl)benzyl)piperazine-2,5-dione] | 6.8 µM

Second part, the compound after the results:

CDMF75 IC15 | Structure (SMILES)
5.0 µM | CC(=O)N1CC2(C1)C(=O)N(c1ccc(Cl)cc1F)CC(=O)N2Cc1ccc(F)cc1 [Compound 785, 2-acetyl-8-(4-chloro-2-fluorophenyl)-5-(4-fluorobenzyl)-2,5,8-triazaspiro[3.5]nonane-6,9-dione]
4.9 µM | NC(=O)C12CC(C3C(=O)N(c4ncc(Cl)cc4F)CC(=O)N3Cc3ccc(C(F)F)cc3)(C1)C2 (centres unmarked) [Compound 790, 3-(4-(5-chloro-3-fluoro-pyridin-2-yl)-1-(4-(difluoromethyl)benzyl)-3,6-dioxopiperazin-2-yl)bicyclo[1.1.1]pentane-1-carboxamide]
2.7 µM | NC(=O)C12CC(C3C(=O)N(c4ncc(Cl)cc4F)CC(=O)N3Cc3ccc(F)cc3)(C1)C2 (centres unmarked) [Compound 791, 3-(4-(5-chloro-3-fluoro-pyridin-2-yl)-1-(4-fluoro-benzyl)-3,6-dioxopiperazin-2-yl)bicyclo[1.1.1]pentane-1-carboxamide]
3.8 µM | Cc1ccc(CN2C(=O)CN(c3ncc(Cl)cc3F)C(=O)C2C23CC(C(N)=O)(C2)C3)cc1 (centres unmarked) [Compound 792, 3-(4-(5-chloro-3-fluoro-pyridin-2-yl)-1-(4-methyl-benzyl)-3,6-dioxopiperazin-2-yl)bicyclo[1.1.1]pentane-1-carboxamide]
3.9 µM | O=C1CN(c2ccc(Cl)cc2F)C(=O)C2(COC2)N1Cc1ccc(F)cc1 [Compound 799, 8-(4-chloro-2-fluoro-phenyl)-5-(4-fluorobenzyl)-2-oxa-5,8-diazaspiro-[3.5]nonane-6,9-dione]
0.4 µM | O=C1CN(c2ncc(Cl)cc2F)C(=O)C2(CC3(COC3)C2)N1Cc1ccc(C(F)(F)F)cc1 [Compound 813, 10-(5-chloro-3-fluoro-pyridin-2-yl)-7-(4-(trifluoro-methyl)benzyl)-2-oxa-7,10-diazadispiro-[3.1.56.14]dodecane-8,11-dione]
0.8 µM | O=C1CN(c2ncc(Cl)cc2F)C(=O)C2(CC3(COC3)C2)N1Cc1ccc(C(F)F)cc1 [Compound 814, 10-(5-chloro-3-fluoro-pyridin-2-yl)-7-(4-(difluoromethyl)benzyl)-2-oxa-7,10-diazadispiro-[3.1.56.14]dodecane-8,11-dione]
0.7 µM | O=C1CN(c2ncc(Cl)cc2F)C(=O)C2(CC3(COC3)C2)N1Cc1ccc(F)cc1 [Compound 815, 10-(5-chloro-3-fluoro-pyridin-2-yl)-7-(4-Fluorobenzyl)-2-oxa-7,10-diazadispiro-[3.1.56.14]dodecane-8,11-dione]

From patent US11414424B2, “Cardiac sarcomere inhibitors” (Cytokinetics, Inc., priority 2018, dated 2022)
